Assay results published in US8173131B2, “Compositions and methods for modulating RSV infection and immunity” (PerkinElmer Health Sciences, Inc., priority 2000, dated 2012).

Assays:
RSV = RSV plaque reduction assay on Vero cells (Example 1); format: cell-based, RSV/A2
Description: Dilutions of Fkn (R&D systems), SDF-1 α (R&D systems), G glycoprotein, heparin (Sigma), G glycoprotein peptides and anti-CX3CR1 antibody were made in serum-free Dulbecco's Modified Eagle's Media (DMEM; GIBCO) containing 1% BSA (Sigma) and preincubated with the Vero cells for 1 h at 37° C. 50 μg of anti-CX3CR1 antibody or heat-inactivated (56° C., 30 min) normal rabbit sera (control) were used in all experiments. […] Dilutions of RSV were made in serum-free DMEM (GIBCO) and added to pretreated Vero cells for 2 h at 37° C. Following virus infection, DMEM (GIBCO) containing 10% FBS (Hyclone, Logan, Utah) was added to the wells. Plaques were enumerated using immunostaining for F and G glycoproteins using biotinylated monoclonal antibodies 131-2A (anti-F glycoprotein) and 130-2G (anti-G glycoprotein) as described^45.
RSV plaque reduction following treatment with G glycoprotein, Fkn, G glycoprotein peptides, anti-CX3CR1 antibody, SDF-1-α and/or heparin as described in Methods. Percent inhibition was determined from the mean plaque forming units (pfu) of treated Vero cells over saline-treated Vero cells using a dilution of RSV that would produce 40-80 pfu. p-values were determined using unpaired two-tailed analysis where p<0.05 is significant. The concentration of G glycoprotein was estimated using a molecular weight of 90 kD.

CD3+ BAL cells = assay: Intracellular cytokine expression by CD3+ T cells following in vivo peptide treatment; parameters: species or system BALB/c mice
Description: (§1) On day −1, prior to RSV infection, mice were i.p. treated (0.1 ml/mouse) with 100 μM of G glycoprotein peptides RT33 (CWAIC) (SEQ ID NO: 12), RT34 (lacks the CX3C motif) or peptides with changes in the CX3C motif (Δ+1, Δ−1, EYp1). Control mice were treated with PBS containing a similar dilution of DMSO used to solubilize the peptides.
Intracellular cytokine staining was modified for microculture staining as described (55, 57). Briefly, BAL cells were incubated in PBS containing Golgi Stop (Pharmingen) for 3 h at 37° C. to allow for accumulation of intracellular cytokines. The cells were washed in PBS containing 1% bovine serum albumin, blocked with 10% normal mouse sera diluted in PBS containing 1% bovine serum albumin, and stained (4° C., 30 min) with an appropriate dilution of anti-CD3 antibody, fixed and permeabilized in Cytofix/Cytoperm (Pharmingen). The cells were washed in Cytofix/Cytoperm buffer and stained (4° C., 30 min) with appropriate dilutions of anti-IL-2 (JES6-5H4), anti-IL-4 (BVD4-1D11), anti-IL-5 (TRFK5), IL-10 (JES3-16E3), anti-IFNγ (XMG1.2), or anti-TNFα (MP6-XT22) antibodies (Pharmingen) diluted in Cytofix/Cytoperm. Extra- and intracellular staining was analyzed by flow cytometry using a FACScan and Cell Quest software (Becton Dickinson, San Diego, Calif.). Total cytokine expression by CD3+ T cells was determined from the percent cytokine expression of CD3+ T cells and total number of cells recovered. The total number of CD3+ BAL cells expressing a particular cytokine was determined by multiplying the total number of BAL cells by the percent CD3+ cells expressing that particular cytokine.

[1] = tested on: bronchoalveolar leukocytes (BAL); assay: BAL cell infiltration and cell types in RSV-infected mice following in vivo peptide treatment; parameters: species or system BALB/c mice; conditions: in words
Description: Total pulmonary leukocyte trafficking following treatment of mice with peptides containing a CX3C motif (RT33 and EYp1) (A) or peptides without a CX3C motif (RT34, Δ+1, Δ−1)(B).
Flow cytometry results following treatment (d−1) of mice with PBS, RT33, RT34, Δ+1, Δ−1 and EYp1 peptides (100 μm). BAL cells were stained with antibodies against B220^+ (A, D, G), CD3^+ (B, E, H) and CD11b^+ (C, F, I) cells. Data is expressed as the total BAL cells/lung±SEM at days 3, 5, 7 and 14 post-infection. A representative experiment from 3 independent experiments is shown.
Flow cytometry results following treatment (d−1) of mice with PBS, RT33, RT34, Δ+1, Δ−1 and EYp1 peptides (100 μm). BAL cells were stained with antibodies against NK (DX5^+) (A, C, E) and PMN (RB6-8C5^+) cells (B, D, F). Data is expressed as the total BAL cells/lung±SEM at days 3, 5, 7 and 14 post-infection. A representative experiment from 3 independent experiments is shown.
as §1
Mice were anesthetized with Avertin and exsanguinated by severing the right caudal artery. Bronchoalveolar leukocyte (BAL) cells were harvested by lung lavage with PBS containing 1% bovine serum albumin (BSA, Sigma). The procedure used for extracellular staining of BAL cells was modified for microculture staining as described (55,57). Briefly, BAL cells were washed in Dulbecco's PBS (GIBCO) containing 1% bovine serum albumin (Sigma), blocked with 10% normal mouse sera diluted in PBS containing 1% bovine serum albumin, and then stained (4° C., 30 min) with an appropriate dilution of FITC-conjugated or PE-conjugated anti-CD3ε (145-2C11), anti-CD45R/B220 (RA3-6B2), anti-CD8 (Ly-2), anti-neutrophil (PMN) (RB6-8C5), anti-CD11b (M1/70) and isotype antibody controls (all from Pharmingen, San Diego, Calif.).

[2] = target: T1, Fkn binding to 293-CX3CR1 cells (Homo sapiens, UniProt P49238); conditions: chemokine 10 μM
T1 construct: host or cells: HEK 293 cells stably transfected with CX3CR1

[3] = tested on: G glycoprotein binding to 293-CX3CR1 cells; parameters: species or system human; conditions: chemokine 10 μM
Description: All binding studies were done on ice and either G glycoprotein or human Fkn (R&D Diagnostics, Minneapolis, Minn.) were diluted between 1 nM-100 nM in PBS (GIBCO) containing 1% bovine serum albumin (Sigma) and incubated with the 293-CX3CR1 cells or 293 control cells for 30 min at 4° C. […] Without washing, 100 pM of either Fkn or G glycoprotein was added and incubated for 30 min at 4° C. The cells were washed, blocked with FcγRIII blocking antibody (HB197) for 30 min on ice, washed and stained as appropriate with either an anti-G glycoprotein monoclonal antibody cocktail (132-5B, 132-5G, 130-2G, 232-IF) or a biotinylated anti-G glycoprotein monoclonal antibody cocktail (130-2G, 131-2G) or anti-Fkn monoclonal antibody (51637.11; R&D Diagnostics). Concentrations of 1 μg of anti-G glycoprotein monoclonal antibody (131-2G)^34, rabbit anti-CX3CR1 sera^33, and anti-CX3CR1 monoclonal antibody containing 10 μg/ml heparin were used in all experiments. […] Staining was detected with absorbed FITC-goat anti-mouse (H & L chain) monoclonal antibody (PharMingen, San Diego, Calif.) or streptavidin-PE (PharMingen) using flow cytometry (FACScan, Becton-Dickinson, Mountain View, Calif.). A 76 amino acid ^125I-Fkn polypeptide comprising the […] (NEN, Boston, Mass.) was used in radioligand studies^33. As a control, the void volume following purified G glycoprotein passaged over an anti-G glycoprotein antibody (130-2G) affinity column was examined by flow cytometry for binding to either 293 or 293-CX3CR1 cells.
For peptide inhibition studies, a series of G glycoprotein peptides were identified in the amino acid sequence of the A2 strain of RSV (GENBANK, attachment protein locus 1912305, Table 4). The peptides were synthesized using a simultaneous, multiple solid-phase peptide synthesis method on a peptide synthesizer (Perkin-Elmer Applied Biosystems, Berkeley, Calif.), and tested for homogeneity by reverse-phase liquid chromatography and capillary electrophoresis (www.biotech.cdc.gov/protein/methods). Inhibition assays were performed as described for the binding studies above.
To determine if G glycoprotein bound 293-CX3CR1 cells via CX3CR1, the ability of four reagents (anti-CX3CR1 rabbit antiserum, anti-CX3CR1 monoclonal antibody (2A9-1), Fkn and a 76 amino acid 125-I-Fkn polypeptide containing the CX3C domain) that bind to CX3CR1 to block G glycoprotein binding to 293-CX3CR1 cells was examined. In addition, to determine if binding of G glycoprotein to 293-CX3CR1 cells was dependent upon the CX3C motif, G glycoprotein peptides with a single residue insertion (Δ+1) or deletion (Δ−1) in the CX3C motif and also peptides that lacked or included the CX3C motif (Table 4) were generated. This panel of peptides was analyzed for their ability to block G glycoprotein or Fkn binding to 293-CX3CR1 cells.
Inhibition of Fkn and G glycoprotein binding to 293-CX3CR1 cells by treatment with monoclonal antibodies to G glycoprotein or CX3CR1, or treatment with G glycoprotein, Fkn, or G glycoprotein peptides in the presence or absence of heparin as described in Methods. […] The concentration of G glycoprotein was estimated using a molecular weight of 90 kD.

T1 sequence (P49238 whole entry): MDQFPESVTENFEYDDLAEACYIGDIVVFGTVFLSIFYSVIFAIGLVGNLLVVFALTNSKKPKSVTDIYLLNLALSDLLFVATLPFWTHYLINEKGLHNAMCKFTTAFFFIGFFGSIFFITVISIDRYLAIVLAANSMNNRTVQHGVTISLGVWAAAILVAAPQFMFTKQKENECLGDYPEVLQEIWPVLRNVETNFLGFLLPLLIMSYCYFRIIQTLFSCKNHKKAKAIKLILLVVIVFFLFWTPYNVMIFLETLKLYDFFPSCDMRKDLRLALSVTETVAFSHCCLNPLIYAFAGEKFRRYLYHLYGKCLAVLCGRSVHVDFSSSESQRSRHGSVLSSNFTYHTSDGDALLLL

SDF-1α [reference compound]
plaque inhibition (%) (RSV; 1 nM): 5% | plaque inhibition (%) (RSV; 10 nM): 7% | plaque inhibition (%) (RSV; 100 nM): 12% | effect on RSV plaque formation / plaque number (RSV; in words): no effect on RSV plaque formation was detected

TCAAACKRIPNKK [EYp1, 13-mer G glycoprotein peptide variant of RT33 with CAAAC motif]
Total IC cytokine Expressing CD3^+ BAL cells (×10^3) ± SEM: IFNγ (CD3+ BAL cells; day 3 pi): 32 ± 7.3 ×10^3 | Total IC cytokine Expressing CD3^+ BAL cells (×10^3) ± SEM: IL-4 (CD3+ BAL cells; day 3 pi): 32 ± 7.2 ×10^3 | Total IC cytokine Expressing CD3^+ BAL cells (×10^3) ± SEM: IL-5 (CD3+ BAL cells; day 3 pi): 34 ± 7.7 ×10^3 | Total IC cytokine Expressing CD3^+ BAL cells (×10^3) ± SEM: IL-6 (CD3+ BAL cells; day 3 pi): 35 ± 8.0 ×10^3 | Total IC cytokine Expressing CD3^+ BAL cells (×10^3) ± SEM: TNFα (CD3+ BAL cells; day 3 pi): 36 ± 8.1 ×10^3 | Total IC cytokine Expressing CD3^+ BAL cells (×10^3) ± SEM: IL-2 (CD3+ BAL cells; day 3 pi, peptide 24 hours prior to RSV infection): 26 ± 6.0 ×10^3 | Total IC cytokine Expressing CD3^+ BAL cells (×10^3) ± SEM: IFNγ (CD3+ BAL cells; day 5 pi): 26 ± 5.4 ×10^3 | Total IC cytokine Expressing CD3^+ BAL cells (×10^3) ± SEM: IL-2 (CD3+ BAL cells; day 5 pi): 17 ± 3.6 ×10^3 | Total IC cytokine Expressing CD3^+ BAL cells (×10^3) ± SEM: IL-4 (CD3+ BAL cells; day 5 pi): 28 ± 5.6 ×10^3 | Total IC cytokine Expressing CD3^+ BAL cells (×10^3) ± SEM: IL-5 (CD3+ BAL cells; day 5 pi): 32 ± 6.5 ×10^3 | Total IC cytokine Expressing CD3^+ BAL cells (×10^3) ± SEM: IL-6 (CD3+ BAL cells; day 5 pi): 19 ± 7.4 ×10^3 | Total IC cytokine Expressing CD3^+ BAL cells (×10^3) ± SEM: TNFα (CD3+ BAL cells; day 5 pi): 41 ± 8.4 ×10^3 | Total IC cytokine Expressing CD3^+ BAL cells (×10^3) ± SEM: IFNγ (CD3+ BAL cells; day 7 pi): 18 ± 2.6 ×10^3 | Total IC cytokine Expressing CD3^+ BAL cells (×10^3) ± SEM: IL-2 (CD3+ BAL cells; day 7 pi): 7.8 ± 1.1 ×10^3 | Total IC cytokine Expressing CD3^+ BAL cells (×10^3) ± SEM: IL-4 (CD3+ BAL cells; day 7 pi): 12 ± 1.6 ×10^3 | Total IC cytokine Expressing CD3^+ BAL cells (×10^3) ± SEM: IL-5 (CD3+ BAL cells; day 7 pi): 20 ± 2.8 ×10^3 | Total IC cytokine Expressing CD3^+ BAL cells (×10^3) ± SEM: IL-6 (CD3+ BAL cells; day 7 pi): 17 ± 2.4 ×10^3 | Total IC cytokine Expressing CD3^+ BAL cells (×10^3) ± SEM: TNFα (CD3+ BAL cells; day 7 pi): 6.8 ± 2.8 ×10^3 | Total IC cytokine Expressing CD3^+ BAL cells (×10^3) ± SEM: IFNγ (CD3+ BAL cells; day 14 pi): 5.3 ± 0.3 ×10^3 | Total IC cytokine Expressing CD3^+ BAL cells (×10^3) ± SEM: IL-2 (CD3+ BAL cells; day 14 pi): 5.1 ± 0.3 ×10^3 | Total IC cytokine Expressing CD3^+ BAL cells (×10^3) ± SEM: IL-4 (CD3+ BAL cells; day 14 pi): 5.4 ± 0.3 ×10^3 | Total IC cytokine Expressing CD3^+ BAL cells (×10^3) ± SEM: IL-5 (CD3+ BAL cells; day 14 pi): 7.7 ± 0.5 ×10^3 | Total IC cytokine Expressing CD3^+ BAL cells (×10^3) ± SEM: IL-6 (CD3+ BAL cells; day 14 pi): 5.0 ± 0.3 ×10^3 | Total IC cytokine Expressing CD3^+ BAL cells (×10^3) ± SEM: TNFα (CD3+ BAL cells; day 14 pi): 6.8 ± 0.5 ×10^3 | total BAL numbers compared to mice treated with RT34, Δ−1 or PBS ([1]; day 3 pi): reduced BAL numbers | numbers of BAL cell types (B220+, CD3+, CD11b+, NK, PMN) ([1]; days 3, 5, 7 and 14 pi): increased numbers of CD3+ cells on days 5 and 7 pi | course of BAL numbers ([1]; from day 3 to day 14 pi): increased

B1: IP-10: chemokine (protein, UniProt P17515 22-98, looked up)
C-X-C motif chemokine 10: IPLARTVRCNCIHIDDGPVRMRAIGKLEIIPASLSCPRVEIIATMKKNDEQRCLNPESKTIKNLMKAFSQKRSKRAP
Range of Inhibition (%) of Fkn binding [2]: 0-6% | Range of Inhibition (%) of G glycoprotein binding [3]: 0-4%

B2: MIP-2: chemokine (protein)
chain: AVVASELRCQCLKTLPRVDFKNIQSLSVTPPGPHCAQTEVIATLKGGQKVCLDPEAPLVQKIIQKILNKGKAN
Range of Inhibition (%) of Fkn binding [2]: 0-4% | Range of Inhibition (%) of G glycoprotein binding [3]: 2-8%

B3: KC: growth regulated oncogene-α, KC, chemokine (protein, UniProt P12850 25-96, looked up)
Growth-regulated alpha protein: APIANELRCQCLQTMAGIHLKNIQSLKVLPSGPHCTQTEVIATLKNGREACLDPEAPLVQKIVQKMLKGVPK
Range of Inhibition (%) of Fkn binding [2]: 4-6% | Range of Inhibition (%) of G glycoprotein binding [3]: 0-6%

B4: C10: macrophage inflammatory protein-related protein-1 (C10), chemokine (protein)
chain: GLIQEMEKEDRRYNPPIIHQGFQDTSSDCCFSYATQIPCKRFIYYFPTSGGCIKPGIIFISRRGTQVCADPSDRRVQRCLSTLKQGPRSGNKVIA
Range of Inhibition (%) of Fkn binding [2]: 4-8% | Range of Inhibition (%) of G glycoprotein binding [3]: 5-8%
